Measurements published in patent US6583136B1, “Antifungal ethers” (Janssen Pharmacuetica N.V., priority 1999, dated 2003).

Tests used:
[1] = Water solubility in citric acid/Na2HPO4 buffered water; format: physicochemical; conditions: water buffered with citric acid/Na2HPO4, aqueous buffer, thermodynamic from solid, UV spectroscopy
Description: An excess of compound was added to water buffered with 0.1 M citric acid and 0.2 M Na2HPO4 in a ratio of 61.5/38.5 (pH=4). The mixture was shaken during 1 day at room temperature. The precipitate was filtered off.

[2] = tested on: Aspergillus fumigatus; assay: Determination of fungal susceptibility (MIC); format: cell-based; conditions: CYG medium, 5 days at 30° C., growth to 35% of control or less
Description: (§1) A panel of Candida isolates plus single isolates of the dermatophytes Microsporum canis, Trichophyton rubrum and Trichophyton mentagrophytes; Aspergillus fumigatus, and Cryptococcus neoformans were used to evaluate the activity of the test compounds in vitro. Inocula were prepared as broth cultures (yeasts) or as suspensions of fungal material made from agar slope cultures (moulds). The test compounds were pipetted from dimethylsulfoxide stock solution into water to provide a series of 10-fold dilutions. The fungal inocula were suspended in the growth medium CYG (F. C. Odds, Journal of Clinical Microbiology, 29, 2735-2740, 1991) at approximately 50,000 colony-forming units (CFU) per ml and added to the aqueous test drugs. The cultures were set up in the 96 wells of plastic microdilution plates and they were incubated for 2 days at 37° C. (Candida spp.) or for 5 days at 30° C. (other fungi). Growth in the microcultures was measured by their optical density (OD) measured at a wavelength of 405 nm. The OD for cultures with test compounds was calculated as a percentage of the OD for control cultures, i.e. the OD for cultures without test compounds. Inhibition of growth to 35% of control or less was recorded as significant inhibition.
(§2) Minimal inhibitory concentration (MIC; in 10^−6 M) of some of the compounds of formula (I) for Candida glabrata, Candida krusei, Candida parapsilosis, Candida albicans, Candida kefyr, Candida tropicalis, Microsporum canis, Trichophyton rubrum, Trichophyton mentagrophytes, Cryptococcus neoformans and Aspergillus fumigatus are listed in table 3.

[3] = tested on: Candida albicans; assay: Determination of fungal susceptibility (MIC); format: cell-based; conditions: CYG medium, 2 days at 37° C., growth to 35% of control or less
Description: as §1, §2

[4] = tested on: Candida glabrata; assay: Determination of fungal susceptibility (MIC); format: cell-based; conditions: CYG medium, 2 days at 37° C., growth to 35% of control or less
Description: as §1, §2

[5] = tested on: Candida kefyr; assay: Determination of fungal susceptibility (MIC); format: cell-based; conditions: CYG medium, 2 days at 37° C., growth to 35% of control or less
Description: as §1, §2

[6] = tested on: Candida krusei; assay: Determination of fungal susceptibility (MIC); format: cell-based; conditions: CYG medium, 2 days at 37° C., growth to 35% of control or less
Description: as §1, §2

[7] = tested on: Candida parapsilosis; assay: Determination of fungal susceptibility (MIC); format: cell-based; conditions: CYG medium, 2 days at 37° C., growth to 35% of control or less
Description: as §1, §2

[8] = tested on: Candida tropicalis; assay: Determination of fungal susceptibility (MIC); format: cell-based; conditions: CYG medium, 2 days at 37° C., growth to 35% of control or less
Description: as §1, §2

[9] = tested on: Cryptococcus neoformans; assay: Determination of fungal susceptibility (MIC); format: cell-based; conditions: CYG medium, 5 days at 30° C., growth to 35% of control or less
Description: as §1, §2

[10] = tested on: Microsporum canis; assay: Determination of fungal susceptibility (MIC); format: cell-based; conditions: CYG medium, 5 days at 30° C., growth to 35% of control or less
Description: as §1, §2

[11] = tested on: Trichophyton mentagrophytes; assay: Determination of fungal susceptibility (MIC); format: cell-based; conditions: CYG medium, 5 days at 30° C., growth to 35% of control or less
Description: as §1, §2

[12] = tested on: Trichophyton rubrum; assay: Determination of fungal susceptibility (MIC); format: cell-based; conditions: CYG medium, 5 days at 30° C., growth to 35% of control or less
Description: as §1, §2

Compound	solubility at 1 day ([1]; pH 3.65, shaken 1 day at room temperature) [µg/mL]	MIC values in 10^−6 M [2]	MIC values in 10^−6 M [3]	MIC values in 10^−6 M [4]	MIC values in 10^−6 M [5]	MIC values in 10^−6 M [6]	MIC values in 10^−6 M [7]	MIC values in 10^−6 M [8]	MIC values in 10^−6 M [9]	MIC values in 10^−6 M [10]	MIC values in 10^−6 M [11]	MIC values in 10^−6 M [12]	solubility at 1 day ([1]; pH 4.05, shaken 1 day at room temperature) [µg/mL]
CC(OCC(N)Cc1ccccc1)C(C)n1ncn(-c2ccc(N3CCN(c4ccc(OCC5COC(Cn6cncn6)(c6ccc(F)cc6F)O5)cc4)CC3)cc2)c1=O (stereo not drawn) [Compound 3]	> 7090	1 10^−6 M	<0.01 10^−6 M	1 10^−6 M	<0.01 10^−6 M	1 10^−6 M	<0.01 10^−6 M	0.1 10^−6 M	0.1 10^−6 M	1 10^−6 M	1 10^−6 M	0.1 10^−6 M	–
CCC(COCCN(CC)CC)n1ncn(-c2ccc(N3CCN(c4ccc(OCC5COC(Cn6cncn6)(c6ccc(F)cc6F)O5)cc4)CC3)cc2)c1=O (stereo not drawn) [Compound 5]	–	1 10^−6 M	<0.1 10^−6 M	10 10^−6 M	<0.1 10^−6 M	10 10^−6 M	<0.1 10^−6 M	1 10^−6 M	1 10^−6 M	<0.1 10^−6 M	10 10^−6 M	10 10^−6 M	> 12000
